Reference: PubChem BioAssay AID192 (DTP/NCI, 2004)
Inconclusive results and toxic doses are left out. How the source made its calls: active means survival T/C of 150% or more; inactive means T/C below 125% in these data.

Test system: BDF1 mice, B16 melanoma ip, median survival T/C
Test: NCI In Vivo Anticancer Drug Screen. Data for tumor model B16 Melanoma (intraperitoneal) in B6D2F1 (BDF1) mice
Conditions: endpoint: median survival time, higher = longer survival
In short: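 Transplantable tumor model; survival or tumor size measured; reported as T/C, treated over vehicle control.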

[1] = dose: 0.75 mg/kg/injection, schedule: Q01DX009 (ip), vehicle: saline with Tween-80

Measured: T/C

O=C(O)C(=O)O.O=C(O)C(=O)O.OO.OO.[Nb]
inactive: dose: 3.13 mg/kg/injection, schedule: Q01DX009 (ip), vehicle: water 100 % of control | dose: 6.25 mg/kg/injection, schedule: Q01DX009 (ip), vehicle: water 101 % of control | dose: 12.5 mg/kg/injection, schedule: Q01DX009 (ip), vehicle: water 103 % of control | dose: 25.0 mg/kg/injection, schedule: Q01DX009 (ip), vehicle: water 112 % of control | dose: 50.0 mg/kg/injection, schedule: Q01DX009 (ip), vehicle: water 96 % of control

O=C(NCCCCCCNC(=O)N1CC1)N1CC1
inactive: dose: 0.3 mg/kg/injection, schedule: Q01DX009 (ip), vehicle: saline 101 % of control | dose: 0.6 mg/kg/injection, schedule: Q01DX009 (ip), vehicle: saline 96 % of control | dose: 1.2 mg/kg/injection, schedule: Q01DX009 (ip), vehicle: saline 103 % of control | dose: 2.4 mg/kg/injection, schedule: Q01DX009 (ip), vehicle: saline 92 % of control | dose: 4.8 mg/kg/injection, schedule: Q01DX009 (ip), vehicle: saline 103 % of control

Nc1ncn(C2OC(CO)C(O)C2O)c(=O)n1 (stereo not drawn)
inactive: dose: 0.25 mg/kg/injection, schedule: Q01DX009 (ip), vehicle: suspension in saline 90 % of control | dose: 0.5 mg/kg/injection, schedule: Q01DX009 (ip), vehicle: suspension in saline 112 % of control | [1] 118 % of control | dose: 1.0 mg/kg/injection, schedule: Q01DX009 (ip), vehicle: suspension in saline 91 % of control | dose: 1.5 mg/kg/injection, schedule: Q01DX009 (ip), vehicle: saline with Tween-80 124 % of control | dose: 2.0 mg/kg/injection, schedule: Q01DX009 (ip), vehicle: suspension in saline 92 % of control

COC1/C=C\C=C(/C)C(=O)NC2=CC(=O)C(N)=C(CC(C)CC(OC)C(O)C(C)C=C(C)C1OC(N)=O)C2=O (stereo not drawn)
inactive: [1] 117 % of control

S=C1NC(c2ccccc2)NC(c2ccccc2)S1 (stereo not drawn)
inactive: dose: 100.0 mg/kg/injection, schedule: Q01DX009 (ip), vehicle: other 100 % of control | dose: 200.0 mg/kg/injection, schedule: Q01DX009 (ip), vehicle: other 94 % of control | dose: 400.0 mg/kg/injection, schedule: Q01DX009 (ip), vehicle: other 86 % of control

O=C(C=P(c1ccccc1)(c1ccccc1)c1ccccc1)c1ccccc1
inactive: dose: 100.0 mg/kg/injection, schedule: Q04DX003 (ip), vehicle: saline with Tween-80 102 % of control | dose: 200.0 mg/kg/injection, schedule: Q04DX003 (ip), vehicle: saline with Tween-80 102 % of control | dose: 400.0 mg/kg/injection, schedule: Q04DX003 (ip), vehicle: saline with Tween-80 102 % of control
